Results reported in patent US20250313535A1, “ALPHA 4 BETA 7 INTEGRIN MODULATORS AND USES THEREOF” (DICE MOLECULES SV, INC., priority 2022, published 2025).
Where two headings read alike, the source gives them in different places.

Assays:
α4β7 integrin = α4β7 integrin (Homo sapiens (Human), UniProt P13612+P26010); test: Integrin Adhesion Assay: Protocol 4 (MAdCAM-coated plate, RPMI-8866 cells with stable LOF mutation of the ITGB1 gene); type: cell-based
Method in brief: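 RPMI-8866 cells with CRISPR/Cas9 knockout of ITGB1 (2×10^6/mL) were added to MAdCAM-coated wells with compound (1% DMSO) in HEPES/NaCl buffer with 1 mM MnCl2, 0.1 mM CaCl2 and 1% BSA, then incubated 1 h at 37 °C. After four washes, adherent cells were quantified by CellTiter-Glo luminescence. Percent inhibition versus DMSO and control compound was fitted to 4-parameter curves.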

α4β1 integrin = α4β1 integrin (Homo sapiens (Human), UniProt P05556+P13612); test: Integrin Adhesion Assay: Protocol 5 (VCAM-coated plate, RPMI-8866 cells with stable LOF mutation of the ITGB7 gene); type: cell-based
Method in brief: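 RPMI-8866 B cells with CRISPR/Cas9 ITGB7 knockout (clonal, verified by flow cytometry) adhered to VCAM-coated wells for 1 h at 37° C in HEPES/NaCl buffer with 1 mM MnCl2, 0.1 mM CaCl2, 1% BSA, 1% DMSO. Bound cells quantified by CellTiter-Glo luminescence after washing; % inhibition versus DMSO and control, 4-parameter fit.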

[1] = Protocol 4, RPMI-8866 cells with LOF mutation of ITGB1, MAdCAM, read-out: Mean IC50 α4β7 KO
[2] = Protocol 5, RPMI-8866 cells with LOF mutation of ITGB7, VCAM, read-out: Mean IC50 α4β1 KO
[3] = RPMI-8866 cells with stable LOF mutation of the ITGB1 gene, read-out: Mean IC50 α4β7 KO^a
[4] = RPMI-8866 cells with stable LOF mutation of the ITGB7 gene, read-out: Mean IC50 α4β1 KO^b

Chain of α4β7 integrin (P13612 34-1032): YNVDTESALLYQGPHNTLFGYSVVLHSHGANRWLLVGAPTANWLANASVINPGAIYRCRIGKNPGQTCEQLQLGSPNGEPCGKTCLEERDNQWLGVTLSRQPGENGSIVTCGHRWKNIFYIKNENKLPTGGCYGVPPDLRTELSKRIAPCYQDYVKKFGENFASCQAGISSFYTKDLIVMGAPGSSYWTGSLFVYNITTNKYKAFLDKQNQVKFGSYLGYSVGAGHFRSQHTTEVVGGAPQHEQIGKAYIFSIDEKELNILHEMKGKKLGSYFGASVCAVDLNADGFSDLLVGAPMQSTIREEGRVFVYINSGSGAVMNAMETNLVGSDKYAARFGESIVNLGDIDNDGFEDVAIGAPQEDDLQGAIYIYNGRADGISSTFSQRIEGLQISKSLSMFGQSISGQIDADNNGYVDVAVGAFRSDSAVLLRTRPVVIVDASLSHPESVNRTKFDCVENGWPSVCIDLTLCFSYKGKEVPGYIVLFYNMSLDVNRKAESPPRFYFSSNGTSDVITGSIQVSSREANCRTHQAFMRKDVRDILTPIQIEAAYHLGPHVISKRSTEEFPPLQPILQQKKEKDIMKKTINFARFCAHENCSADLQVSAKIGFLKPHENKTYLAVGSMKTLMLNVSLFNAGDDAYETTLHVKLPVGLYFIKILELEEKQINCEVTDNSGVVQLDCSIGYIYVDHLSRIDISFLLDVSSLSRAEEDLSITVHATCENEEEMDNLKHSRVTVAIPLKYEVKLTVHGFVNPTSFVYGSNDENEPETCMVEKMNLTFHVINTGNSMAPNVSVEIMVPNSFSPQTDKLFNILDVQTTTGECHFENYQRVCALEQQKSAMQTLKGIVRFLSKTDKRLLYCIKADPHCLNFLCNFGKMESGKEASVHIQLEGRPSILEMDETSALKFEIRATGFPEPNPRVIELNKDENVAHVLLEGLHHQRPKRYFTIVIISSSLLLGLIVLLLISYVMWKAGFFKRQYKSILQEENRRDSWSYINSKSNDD
Chain of α4β7 integrin (P26010 20-798): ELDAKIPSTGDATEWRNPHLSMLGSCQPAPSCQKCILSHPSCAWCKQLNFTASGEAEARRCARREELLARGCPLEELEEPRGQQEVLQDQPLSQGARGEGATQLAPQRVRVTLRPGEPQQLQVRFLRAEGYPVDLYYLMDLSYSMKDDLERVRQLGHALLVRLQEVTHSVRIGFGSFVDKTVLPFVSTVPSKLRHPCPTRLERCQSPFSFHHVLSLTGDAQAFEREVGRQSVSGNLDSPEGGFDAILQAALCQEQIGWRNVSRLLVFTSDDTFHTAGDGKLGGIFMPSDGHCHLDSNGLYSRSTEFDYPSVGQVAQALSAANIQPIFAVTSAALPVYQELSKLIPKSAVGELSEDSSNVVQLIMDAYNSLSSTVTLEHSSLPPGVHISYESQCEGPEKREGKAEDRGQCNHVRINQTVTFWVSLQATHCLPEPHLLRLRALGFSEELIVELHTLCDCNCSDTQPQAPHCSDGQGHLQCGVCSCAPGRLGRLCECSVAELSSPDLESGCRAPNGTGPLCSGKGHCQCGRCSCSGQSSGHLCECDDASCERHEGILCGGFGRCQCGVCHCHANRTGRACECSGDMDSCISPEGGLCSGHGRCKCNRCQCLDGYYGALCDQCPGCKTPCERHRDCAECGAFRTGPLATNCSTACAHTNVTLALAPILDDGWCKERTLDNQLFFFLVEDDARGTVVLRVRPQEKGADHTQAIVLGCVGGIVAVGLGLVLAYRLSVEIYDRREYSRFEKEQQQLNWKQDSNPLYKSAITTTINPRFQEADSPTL
Chain of α4β1 integrin (P13612 34-1032): as the sequence (P13612 34-1032) above
Chain of α4β1 integrin (P05556 21-798): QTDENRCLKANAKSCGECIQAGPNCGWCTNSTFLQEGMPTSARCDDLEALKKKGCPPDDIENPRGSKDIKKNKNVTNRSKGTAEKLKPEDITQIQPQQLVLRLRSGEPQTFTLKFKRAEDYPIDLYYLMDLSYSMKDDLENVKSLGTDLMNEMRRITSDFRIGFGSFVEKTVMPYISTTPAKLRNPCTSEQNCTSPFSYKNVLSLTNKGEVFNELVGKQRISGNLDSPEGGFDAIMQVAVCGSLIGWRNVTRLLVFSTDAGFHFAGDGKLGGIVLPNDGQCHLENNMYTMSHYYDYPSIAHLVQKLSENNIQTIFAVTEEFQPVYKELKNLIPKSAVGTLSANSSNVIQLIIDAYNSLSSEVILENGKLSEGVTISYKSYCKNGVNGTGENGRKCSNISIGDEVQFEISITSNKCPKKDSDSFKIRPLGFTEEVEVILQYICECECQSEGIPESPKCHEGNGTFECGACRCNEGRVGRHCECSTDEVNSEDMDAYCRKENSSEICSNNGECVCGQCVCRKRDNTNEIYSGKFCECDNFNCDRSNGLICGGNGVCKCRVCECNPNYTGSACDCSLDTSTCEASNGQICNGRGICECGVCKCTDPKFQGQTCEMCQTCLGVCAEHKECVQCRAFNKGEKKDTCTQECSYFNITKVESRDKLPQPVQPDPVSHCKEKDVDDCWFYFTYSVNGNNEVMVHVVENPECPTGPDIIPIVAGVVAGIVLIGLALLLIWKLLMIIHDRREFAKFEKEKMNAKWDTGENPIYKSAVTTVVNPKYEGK

Row | Structure (SMILES) | IC50 (α4β7 integrin; [1]) [µM] | IC50 (α4β1 integrin; [2]) [µM] | IC50 (α4β7 integrin; [3]) [µM] | IC50 (α4β1 integrin; [4]) [µM]
1 | CC(C)c1cccc(F)c1C(=O)N[C@@H](Cc1cccc2c(-c3c(C(F)(F)F)c4cc(CN5CCCCC5)ccc4n(C)c3=O)cccc12)C(=O)O [Compound 1029] | < 0.01 | 0.01 to 0.1 | – | –
2 | O=C(O)[C@H](Cc1cccc2c(-c3nccc4ccc(CCN5CCCCC5)cc34)cccc12)NC(=O)C1(C(F)(F)F)CCN(CC(F)(F)F)CC1 [Compound 718] | < 0.01 | > 1 | – | –
3 | COc1ccc(CN2CC3CCCCC3C2)c(OC)c1-c1cccc2c(C[C@H](NC(=O)C3(C(F)(F)F)CCN(CC(F)(F)F)CC3)C(=O)O)cccc12 (stereo partly shown) [Compound 811] | < 0.01 | > 1 | – | –
4 | COc1ccc(CN2CCC(F)(F)CC2)c(OC)c1-c1cccc2c(C[C@H](NC(=O)c3c(C)cc(C45CCOCC4C5)cc3F)C(=O)O)cccc12 (stereo partly shown) [Compound 616] | – | – | 0.01 to 0.1 | > 1
5 | COc1ccc(CN2CCC3(CC2)CC3)c(OC)c1-c1cccc2c(C[C@H](NC(=O)c3c(C)cccc3F)C(=O)O)cccc12 [Compound 623] | – | – | < 0.01 | 0.1 to 1
6 | O=C(O)[C@H](Cc1cccc2c(-c3ncc(CCN4CCC[C@H](F)C4)c4ccccc34)cccc12)NC(=O)C1(C(F)(F)F)CCN(CC(F)(F)F)CC1 [Compound 978] | < 0.01 | > 1 | – | –
7 | Cc1cc(C(F)(F)F)c(-c2cccc3c(C[C@H](NC(=O)C4(C(F)(F)F)CCN(CC(F)(F)F)CC4)C(=O)O)cccc23)c(=O)n1C [Compound 453] | – | – | < 0.01 | 0.1 to 1
8 | O=C(O)[C@H](Cc1cccc2c(-c3ncc(CN4CCC5(CCC5)C4)c4ccccc34)cccc12)NC(=O)C1(C(F)(F)F)CCN(CC(F)F)CC1 [Compound 909] | < 0.01 | 0.1 to 1 | – | –
9 | COc1ccc(CN2CCN(C3CCC3)CC2)c(OC)c1-c1cccc2c(C[C@H](NC(=O)C3(C(F)(F)F)CCN(CC(F)(F)F)CC3)C(=O)O)cccc12 [Compound 816] | < 0.01 | 0.1 to 1 | – | –
10 | O=C(O)[C@H](Cc1cccc2c(-c3ncc(CN4CCC[C@H](F)C4)c4ccccc34)cccc12)NC(=O)C1(C(F)(F)F)CCN(CC(F)F)CC1 [Compound 859] | < 0.01 | > 1 | – | –
11 | COc1ccc(CN2CCOCC2)c(OC)c1-c1cccc2c(C[C@H](NC(=O)c3c(C)cccc3F)C(=O)O)cccc12 [Compound 650] | – | – | < 0.01 | 0.1 to 1
12 | COc1ccc(CN2CC3C(C2)C3(C)C)c(OC)c1-c1cccc2c(C[C@H](NC(=O)C3(C(F)(F)F)CCN(CC(F)(F)F)CC3)C(=O)O)cccc12 (stereo partly shown) [Compound 817] | < 0.01 | 0.1 to 1 | – | –
13 | COc1ccc(CN2CCCCC2)c(OC)c1-c1cccc2c(C[C@H](NC(=O)c3c(C)cccc3F)C(=O)O)cccc12 [Compound 621] | – | – | < 0.01 | 0.1 to 1
14 | COc1ccc(CN2CCC3(CCCCC3)CC2)c(OC)c1-c1cccc2c(C[C@H](NC(=O)C3(C(F)(F)F)CCN(CC(F)(F)F)CC3)C(=O)O)cccc12 [Compound 813] | < 0.01 | > 1 | – | –
15 | COc1cc(CN2CCC(F)(F)CC2)cc(C(F)(F)F)c1-c1cccc2c(C[C@H](NC(=O)C3(C(F)(F)F)CCN(CC(F)(F)F)CC3)C(=O)O)cccc12 [Compound 847] | 0.01 to 0.1 | > 1 | – | –
16 | O=C(O)[C@H](Cc1cccc2c(-c3ncc(CN4CCC5(CCC5)C4)c4ccccc34)cccc12)NC(=O)C1(C(F)(F)F)CCN(CC(F)(F)F)CC1 [Compound 886] | < 0.01 | > 1 | – | –
17 | CN(C)Cc1cccc2c(-c3cccc4c(C[C@H](NC(=O)C5(C(F)(F)F)CCN([C@H]6CCOC6)CC5)C(=O)O)cccc34)nccc12 [Compound 593] | – | – | < 0.01 | 0.1 to 1
18 | O=C(O)[C@H](Cc1cccc2c(-c3ncc(CN4CCCCC4)c4ccccc34)cccc12)NC(=O)C1(C(F)(F)F)CCN(CC2(C(F)(F)F)CC2)CC1 [Compound 683] | – | – | < 0.01 | > 1
19 | COc1ccc(CN2CCC(F)(F)CC2)c(OC)c1-c1cccc2c(C[C@H](NC(=O)C3(C(F)(F)F)CCN(C4COCC4(F)F)CC3)C(=O)O)cccc12 (single isomer, unassigned) [Compound 639] | – | – | < 0.01 | 0.1 to 1

Row | Structure (SMILES) | IC50 (α4β7 integrin; [1]) [µM] | IC50 (α4β1 integrin; [2]) [µM] | IC50 (α4β7 integrin; [3]) [µM] | IC50 (α4β1 integrin; [4]) [µM]
20 | O=C(O)[C@H](Cc1cccc2c(-c3ncc(CN4CCCCC4)c4ccccc34)cccc12)NC(=O)C1(C(F)(F)F)CCN(C2COC2)CC1 [Compound 577] | – | – | < 0.01 | 0.1 to 1
21 | CC1CCN(Cc2ccc3c(c2)c(C(F)(F)F)c(-c2cccc4c(C[C@H](NC(=O)C5(C(F)(F)F)CCN(CC(F)F)CC5)C(=O)O)cccc24)c(=O)n3C)CCC1(F)F (stereo partly shown) [Compound 840] | < 0.01 | 0.01 to 0.1 | – | –
22 | COc1cc(CN2CCCCC2)ccc1-c1cccc2c(C[C@H](NC(=O)C3(C(F)(F)F)CCN(CC(F)(F)F)CC3)C(=O)O)cccc12 [Compound 831] | < 0.01 | > 1 | – | –
23 | COc1cccc(CN2CCC(C)(C)CC2)c1-c1cccc2c(C[C@H](NC(=O)C3(C(F)(F)F)CCN(CC(F)(F)F)CC3)C(=O)O)cccc12 [Compound 829] | 0.01 to 0.1 | > 1 | – | –
24 | COc1ccc2c(c1-c1cccc3c(C[C@H](NC(=O)c4c(C)cccc4F)C(=O)O)cccc13)CN(CC(F)F)CC2 [Compound 995] | 0.01 to 0.1 | 0.1 to 1 | – | –
25 | COc1cc(CN2CCC(F)CC2)cc(OC)c1-c1cccc2c(C[C@H](NC(=O)C3(C(F)(F)F)CCN(CC(F)(F)F)CC3)C(=O)O)cccc12 [Compound 851] | < 0.01 | 0.1 to 1 | – | –
26 | COc1cccc(CN2CCCCC2)c1-c1cccc2c(C[C@H](NC(=O)c3c(F)cccc3C(C)C)C(=O)O)cccc12 [Compound 540] | – | – | < 0.01 | 0.1 to 1
27 | Cn1c(=O)c(-c2cccc3c(C[C@H](NC(=O)c4c(F)cccc4F)C(=O)O)cccc23)c(C(F)(F)F)c2cc(CCN3CCCC3)ccc21 [Compound 710] | < 0.01 | 0.1 to 1 | – | –
28 | Cc1cccc(F)c1C(=O)N[C@@H](Cc1cccc2c(-c3c(C(F)(F)F)c4cc(CCN5CCC(F)(F)CC5)ccc4n(C)c3=O)cccc12)C(=O)O [Compound 714] | 0.01 to 0.1 | > 1 | – | –
29 | COc1ccc(CN2CCCC(F)C2)c(OC)c1-c1cccc2c(C[C@H](NC(=O)C3(C(F)(F)F)CCN(CC(F)(F)F)CC3)C(=O)O)cccc12 (stereo partly shown) [Compound 788] | < 0.01 | > 1 | – | –
30 | COc1ccc2c(c1-c1cccc3c(C[C@H](NC(=O)C4(C(F)(F)F)CCN(CC(F)(F)F)CC4)C(=O)O)cccc13)CCN(C)C2 [Compound 737] | < 0.01 | 0.1 to 1 | – | –
31 | COc1ccc(CCN2CCC(F)(F)CC2)c(C(F)(F)F)c1-c1cccc2c(C[C@H](NC(=O)C3(C(F)(F)F)CCN(CC(F)(F)F)CC3)C(=O)O)cccc12 [Compound 850] | 0.01 to 0.1 | 0.1 to 1 | – | –
32 | COc1ccc(CN2CCC(F)(F)C2)c(OC)c1-c1cccc2c(C[C@H](NC(=O)c3c(C)cccc3F)C(=O)O)cccc12 [Compound 597] | – | – | 0.01 to 0.1 | > 1
33 | COc1cccc(CCN2CCC(c3ccccc3)CC2)c1-c1cccc2c(C[C@H](NC(=O)C3(C(F)(F)F)CCN(CC(F)F)CC3)C(=O)O)cccc12 [Compound 975] | < 0.01 | 0.1 to 1 | – | –
34 | Cn1c(=O)c(-c2cccc3c(C[C@H](NC(=O)C4(C(F)(F)F)CCN(C5COC5)CC4)C(=O)O)cccc23)c(C(F)(F)F)c2ccccc21 [Compound 432] | – | – | < 0.01 | 0.01 to 0.1
35 | CC[C@H]1CCCCN1Cc1cnc(-c2cccc3c(C[C@H](NC(=O)C4(C(F)(F)F)CCN(CC(F)(F)F)CC4)C(=O)O)cccc23)c2ccccc12 [Compound 929] | < 0.01 | 0.1 to 1 | – | –
36 | COc1ccc(CCN2CCCCC2)c(C(F)(F)F)c1-c1cccc2c(C[C@H](NC(=O)C3(C(F)(F)F)CCN(CC(F)(F)F)CC3)C(=O)O)cccc12 [Compound 727] | < 0.01 | 0.01 to 0.1 | – | –
37 | Cn1c(=O)c(-c2cccc3c(C[C@H](NC(=O)C4(C(F)(F)F)CCN(CC(F)F)CC4)C(=O)O)cccc23)c(C(F)(F)F)c2cc(CN3CCC(F)CC3)ccc21 [Compound 834] | < 0.01 | 0.01 to 0.1 | – | –
38 | COc1ccc(CN2CCCCC2)c(OC)c1-c1cccc2c(C[C@H](NC(=O)c3c(F)cccc3Br)C(=O)O)cccc12 [Compound 665] | – | – | < 0.01 | 0.1 to 1
